From ChEMBL document CHEMBL3085750, “Discovery of 2-methylpyridine-based biaryl amides as γ-secretase modulators for the treatment of Alzheimer's disease” (Bioorg Med Chem Lett, 2013)

Tests used:
[1] = molecular target: Gamma-secretase; experiment: Modulation of gamma-secretase in HEK293 cells expressing guinea pig Swedish mutant SFV-APP695sw assessed as inhibition of amyloid beta-42 production after 16 to 18 hrs by HTRF assay; assay type: cell-based, Homo sapiens
[2] = molecular target: Cytochrome P450 2D6 (Homo sapiens, UniProt P10635); experiment: Inhibition of CYP2D6 (unknown origin) after 10 mins; assay type: ADME
[3] = molecular target: Cytochrome P450 3A4 (Homo sapiens, UniProt P08684); experiment: Inhibition of CYP3A4 (unknown origin) after 5 mins; assay type: ADME
[4] = Metabolic stability in human liver microsomes at 1 uM after 30 mins; assay type: ADME; settings: read-out: Stability
[5] = Metabolic stability in rat liver microsomes at 1 uM after 30 mins; assay type: ADME; settings: read-out: Stability

Chain of Cytochrome P450 2D6 (P10635 whole entry): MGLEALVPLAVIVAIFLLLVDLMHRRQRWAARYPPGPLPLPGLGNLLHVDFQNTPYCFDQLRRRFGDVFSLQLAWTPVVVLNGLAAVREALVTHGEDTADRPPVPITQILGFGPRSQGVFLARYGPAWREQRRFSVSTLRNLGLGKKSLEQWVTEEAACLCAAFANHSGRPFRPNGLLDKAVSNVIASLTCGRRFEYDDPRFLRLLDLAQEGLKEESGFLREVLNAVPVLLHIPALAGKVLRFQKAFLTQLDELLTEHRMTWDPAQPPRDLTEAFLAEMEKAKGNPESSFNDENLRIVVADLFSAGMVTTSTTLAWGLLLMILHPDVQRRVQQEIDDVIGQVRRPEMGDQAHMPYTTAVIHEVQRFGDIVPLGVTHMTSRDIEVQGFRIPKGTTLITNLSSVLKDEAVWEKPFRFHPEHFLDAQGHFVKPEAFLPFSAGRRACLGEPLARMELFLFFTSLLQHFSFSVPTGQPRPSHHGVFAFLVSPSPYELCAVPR
Chain of Cytochrome P450 3A4 (P08684 whole entry): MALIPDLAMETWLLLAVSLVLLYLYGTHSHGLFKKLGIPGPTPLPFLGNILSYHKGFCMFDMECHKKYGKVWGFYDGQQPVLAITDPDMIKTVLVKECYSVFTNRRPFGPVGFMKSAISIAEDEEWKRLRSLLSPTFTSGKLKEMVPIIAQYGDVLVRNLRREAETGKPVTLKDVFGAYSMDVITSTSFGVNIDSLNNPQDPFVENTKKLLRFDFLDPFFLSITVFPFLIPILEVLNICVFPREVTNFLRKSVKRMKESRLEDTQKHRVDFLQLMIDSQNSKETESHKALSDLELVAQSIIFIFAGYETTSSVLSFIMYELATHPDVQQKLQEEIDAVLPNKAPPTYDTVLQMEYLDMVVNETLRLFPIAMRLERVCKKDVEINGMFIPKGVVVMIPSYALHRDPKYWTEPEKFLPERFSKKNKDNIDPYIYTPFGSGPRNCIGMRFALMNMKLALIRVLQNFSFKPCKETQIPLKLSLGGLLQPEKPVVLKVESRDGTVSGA

Compound | IC50 [1] | further results
Cc1cc(-c2ccc(NC(=O)Nc3cc(C(F)(F)F)cc(C(F)(F)F)c3)cc2)ccn1 | 1110 nM | 
CCCc1cc(-c2ccc(NS(=O)(=O)c3cc(C(F)(F)F)cc(C(F)(F)F)c3)cc2)ccn1 | 4060 nM | IC50 [2]: 1800 nM; IC50 [3]: > 27000 nM; microsomal CLint at 1 µM [4]: 270 µL/min/mg; microsomal CLint at 1 µM [5]: 122 µL/min/mg
Cc1cc(-c2ccc(C(=O)NCCc3ccc(Cl)cc3)cc2)ccn1 | 2120 nM | 
COc1cc(-c2ccnc(C)c2)ccc1NS(=O)(=O)c1cc(C(F)(F)F)cc(C(F)(F)F)c1 | 1830 nM | IC50 [2]: 1900 nM; IC50 [3]: 2200 nM; microsomal CLint at 1 µM [4]: 306 µL/min/mg; microsomal CLint at 1 µM [5]: > 399 µL/min/mg
Cc1cc(-c2ccc(NC(=O)C(C)c3cc(C#N)cc(C(F)(F)F)c3)cc2)ccn1 (centres undefined) | 7000 nM | 
Cc1cc(-c2ccc(NC(=O)C(C)c3cccc(-c4ccccn4)c3)cc2)ccn1 (centres undefined) | > 10000 nM | 
Cc1cccc(C(CCCO)C(=O)Nc2ccc(-c3ccnc(C)c3)cc2)c1 (centres undefined) | > 10000 nM | 
O=S(=O)(Nc1ccc(-c2cc[nH]n2)cc1)c1cc(Cl)cc(Cl)c1 | > 10000 nM | IC50 [2]: 11800 nM; IC50 [3]: 15300 nM; microsomal CLint at 1 µM [4]: 384 µL/min/mg; microsomal CLint at 1 µM [5]: > 399 µL/min/mg
COc1cc(NS(=O)(=O)c2cc(Cl)cc(Cl)c2)ccc1-n1cnc(C)c1 | 1060 nM | 
Cc1cccc(CC(=O)Nc2ccc(-c3ccnc(C)c3)cc2)c1 | 2780 nM | 
Cc1cccc(C(CC(C)C)C(=O)Nc2ccc(-c3ccnc(C)c3)cc2)c1 (single isomer, unassigned; isomer 2) | 1380 nM | 
Cc1cc(-c2ccc(N(C)C(=O)Cc3cc(C(F)(F)F)cc(C(F)(F)F)c3)cc2)ccn1 | > 10000 nM | 
C=Cc1cc(-c2ccc(NS(=O)(=O)c3cc(C(F)(F)F)cc(C(F)(F)F)c3)cc2)ccn1 | 1260 nM | IC50 [2]: 700 nM; IC50 [3]: 4500 nM; microsomal CLint at 1 µM [4]: 193 µL/min/mg; microsomal CLint at 1 µM [5]: 169 µL/min/mg
Cc1cc(-c2ccc(NC(=O)C(C)c3cc(C(F)(F)F)cc(C(F)(F)F)n3)cc2)ccn1 (centres undefined) | > 10000 nM | 
Cc1noc(-c2ccc(NS(=O)(=O)c3cc(Cl)cc(Cl)c3)cc2)n1 | > 10000 nM | IC50 [2]: > 27000 nM; IC50 [3]: > 27000 nM; microsomal CLint at 1 µM [4]: > 399 µL/min/mg; microsomal CLint at 1 µM [5]: > 399 µL/min/mg
Cc1cc(-c2ccc(NC(=O)Cc3cc(C(F)(F)F)cc(C(F)(F)F)c3)cn2)ccn1 | 1350 nM | 
CCC(C(=O)Nc1ccc(-c2ccnc(C)c2)cc1)c1cccc(C)c1 (centres undefined) | 1050 nM | 
Cc1cc(-c2ccc(NC(=O)C(C)c3cccc(-c4cccnc4)c3)cc2)ccn1 (centres undefined) | 1290 nM | 

Compound | IC50 [1] | further results
Cc1cc(-c2ccc(NC(=O)C(C)c3cccc(-c4ccncc4)c3)cc2)ccn1 (centres undefined) | 1200 nM | 
Cc1cc(-c2ccc(NC(=O)C(C)c3cccc(-c4ccccc4)c3)cc2)ccn1 (centres undefined) | 660 nM | 
Cc1cc(-c2ccc(NC(=O)C(C)(C)c3cc(C(F)(F)F)cc(C(F)(F)F)c3)cc2)ccn1 | > 10000 nM | 
COc1cc(NS(=O)(=O)c2ccc(Cl)c(Cl)c2)ccc1-n1cnc(C)c1 | 900 nM | 
CNc1ccc(-c2cccc(C(C)C(=O)Nc3ccc(-c4ccnc(C)c4)cc3)c2)cn1 (centres undefined) | 930 nM | 
Cc1cc(-c2ccc(NC(=O)C(O)c3cc(C(F)(F)F)cc(C(F)(F)F)c3)cc2)ccn1 (centres undefined) | 2130 nM | 
COc1cc(NC(=O)Cc2cc(C(F)(F)F)cc(C(F)(F)F)c2)ccc1-n1cnc(C)c1 | 1450 nM | 
Cc1cc(-c2cccc(NC(=O)Cc3cc(C(F)(F)F)cc(C(F)(F)F)c3)c2)ccn1 | > 10000 nM | 
O=S(=O)(Nc1ccc(-c2ccco2)cc1)c1cc(Cl)cc(Cl)c1 | > 10000 nM | IC50 [2]: > 27000 nM; microsomal CLint at 1 µM [4]: > 399 µL/min/mg; microsomal CLint at 1 µM [5]: > 399 µL/min/mg
Cc1cc(-c2ccc(/C=C3\CCCN([C@@H](C)c4ccc(F)cc4)C3=O)cc2)ccn1 | 1530 nM | 
Cc1cc(-c2ccc(NC(=O)Cc3cc(C(F)(F)F)cc(C(F)(F)F)c3)nc2)ccn1 | > 10000 nM | 
Cc1cc(-c2ccc(C(=O)NC(C)c3cc(C(F)(F)F)cc(C(F)(F)F)c3)cc2)ccn1 (centres undefined) | > 10000 nM | 
Cc1cc(-c2ccc(NC(=O)C(C)c3cccc(-c4ccc(C(=O)O)cc4)c3)cc2)ccn1 (centres undefined) | > 10000 nM | 
Cc1cc(-c2ccc(NC(=O)C(C)c3cccc(N4CCN(C)CC4)c3)cc2)ccn1 (centres undefined) | > 10000 nM | 
Cc1cc(-c2ccc(NC(=O)C(C)c3ccccc3)cc2)ccn1 (centres undefined) | 6000 nM | 
Cc1cc(-c2ccc(NC(=O)C(C)c3cccc(N4CCOCC4)c3)cc2)ccn1 (centres undefined) | 4800 nM | 
Cc1cc(-c2ccc(NC(=O)C(CC(C)C)c3cc(C(F)(F)F)cc(C(F)(F)F)c3)cc2)ccn1 (centres undefined) | 820 nM | 

The remaining compounds from weak to strong by IC50 [1], led by results:

IC50 [1] | Compound | further results
650 nM | Cc1cc(-c2ccc(NC(=O)C(C)c3cccc(-c4cnc(N5CCOCC5)nc4)c3)cc2)ccn1 (centres undefined) | 
570 nM | Cc1cc(C)cc(C(C)C(=O)Nc2ccc(-c3ccnc(C)c3)cc2)c1 (centres undefined) | 
570 nM | Cc1cc(-c2ccc(NC(=O)C(C)c3cccc(-c4ccccc4C#N)c3)cc2)ccn1 (centres undefined) | 
540 nM | Cc1cccc(C(C)C(=O)Nc2ccc(-c3ccnc(C)c3)cc2)c1 (centres undefined) | 
540 nM | CCCC(C(=O)Nc1ccc(-c2ccnc(C)c2)cc1)c1cccc(C)c1 (centres undefined) | 
530 nM | COc1cc(NS(=O)(=O)c2cc(C(F)(F)F)cc(C(F)(F)F)c2)ccc1-c1ccnc(C)c1 | 
500 nM | COc1cc(NC(=O)[C@H](C)c2cc(C(F)(F)F)cc(C(F)(F)F)c2)ccc1-c1ccnc(C)c1 | 
490 nM | CCCCC(C(=O)Nc1ccc(-c2ccnc(C)c2)cc1)c1cccc(C)c1 (centres undefined) | 
420 nM | COc1cc(C(=O)NCCc2ccc(Cl)cc2)ccc1-n1cnc(C)c1 | 
320 nM | COc1cc(C(=O)NCCC(c2ccccc2)c2ccccc2)ccc1-n1cnc(C)c1 | microsomal CLint at 1 µM [5]: > 399 µL/min/mg
260 nM | Cc1cc(-c2ccc(NC(=O)C(C)c3cccc(-c4ccc(C(=O)N(C)C)cc4)c3)cc2)ccn1 (centres undefined) | 
250 nM | Cc1cc(-c2ccc(NC(=O)C(C)c3cccc(-c4ccc(C#N)cc4)c3)cc2)ccn1 (centres undefined) | 
220 nM | Cc1cc(-c2ccc(NC(=O)C(C)c3cccc(-c4cccc(C#N)c4)c3)cc2)ccn1 (centres undefined) | 
180 nM | Cc1cc(-c2ccc(NC(=O)C(C)c3cccc(-c4ccc(NC(C)C)nc4)c3)cc2)ccn1 (centres undefined) | 
180 nM | Cc1cccc(C(CC(C)C)C(=O)Nc2ccc(-c3ccnc(C)c3)cc2)c1 (single isomer, unassigned; isomer 1) | 
170 nM | Cc1cccc(C(CC(C)C)C(=O)Nc2ccc(-c3ccnc(C)c3)cc2)c1 (stereo in doubt; 50) | 
170 nM | Cc1cc(-c2ccc(NC(=O)C(C)c3cccc(-c4ccc(N(C)C)nc4)c3)cc2)ccn1 (centres undefined) | 
160 nM | Cc1cc(-c2ccc(NC(=O)C(C)c3cccc(N4CCN(c5ccccc5)CC4)c3)cc2)ccn1 (centres undefined) | 
150 nM | Cc1cc(-c2ccc(NC(=O)C(C)c3cccc(-c4ccc(N5CCOCC5)nc4)c3)cc2)ccn1 (centres undefined) | 
150 nM | COc1ccc(-c2cccc(C(C)C(=O)Nc3ccc(-c4ccnc(C)c4)cc3)c2)cc1 (centres undefined) | 
140 nM | CC(=O)c1ccc(-c2cccc(C(C)C(=O)Nc3ccc(-c4ccnc(C)c4)cc3)c2)cc1 (centres undefined) | 
120 nM | Cc1cc(-c2ccc(NC(=O)C(C)c3cccc(-c4ccc(N(C)C)cc4)c3)cc2)ccn1 (centres undefined) | 
70 nM | Cc1cc(-c2ccc(NC(=O)[C@@H](C)c3cccc(-c4ccc(N5CCOCC5)cc4)c3)cc2)ccn1 | 
70 nM | Cc1cc(-c2ccc(NC(=O)C(C)c3cccc(-c4ccc(N5CCOCC5)cc4)c3)cc2)ccn1 (centres undefined) | 
31 nM | Cc1cc(-c2ccc(NC(=O)[C@H](C)c3cccc(-c4ccc(N5CCOCC5)cc4)c3)cc2)ccn1 | 
